Where two headings read alike, the source gives them in different places. Where a SMILES comes first, the peptide text is derived from it. Bridges are numbered along the chain shown (N, C = ends). [ ]: non-standard residue; d: D form. R8 = C=CCCCCCC[C@@](C)(N)C(=O)O; S5 = C=CCCC[C@](C)(N)C(=O)O; Abu = CC[C@H](N)C(=O)O

One may read the EC50 as the concentration giving half of the maximal effect.

In data set [1] the test system is human serum proteins (HSA). In words: Apparent affinity to human serum proteins (Kd*) by EC50 shift analysis. It counts as in vitro ADME. An excerpt: The measurement of apparent Kd values for serum protein by EC50 shift analysis provides a simple and rapid means of quantifying the propensity of experimental compounds to bind HSA and other serum proteins. A linear relationship exists between the apparent EC50 in the presence of serum protein (EC'50) and the amount of serum protein added to an in vitro assay. This relationship is defined by the binding affinity of the compound for serum proteins, expressed as Kd*. This term is an experimentally determined, apparent dissociation constant that may result from the cumulative effects of multiple, experimentally indistinguishable, binding events. The form of this relationship is presented here in Eq. 0.3, and its derivation can be found in Copeland et al, Biorg. Med. Chem. Lett. 2004, 14:2309-2312.
A significant proportion of serum protein binding can be ascribed to drug interactions with HSA, due to the very high concentration of this protein in serum (35-50 g/L or 530-758 μM). To calculate the Kd value for these compounds we have assumed that the shift in EC50 upon protein addition can be ascribed fully to the HSA present in the added serum, where P is 700 μM for 100% serum, P is 70 μM for 10% serum, etc. We further made the simplifying assumption that all of the compounds bind HSA with a 1:1 stoichiometry, so that the term n in Eq. (0.3) is fixed at unity. With these parameters in place we calculated the Kd* value for each stapled peptide from the changes in EC50 values with increasing serum (and serum protein) concentrations by nonlinear regression analysis of Eq. 0.3 using Mathematica 4.1 (Wolfram Research, Inc., www.wolfram.com). EC'50 values in whole blood are estimated by setting P in Eq. 0.3 to 700 μM [HSA].
The free fraction in blood is estimated using the following equation, as derived by Trainor, Expert Opin. Drug Disc., 2007, 2(1):51-64, where [HSA] total is set at 700 μM.
The following macrocycles derived from the human MAML peptide sequences were tested in cell viability assays (described above) with the MOLT-4 tumor cell line at a range of human serum protein concentrations to determine their apparent affinity to human serum proteins and the projected EC50s in whole human blood: […]

Another data set deals with Molt-4 cell line. It is filed as cell-based. As to the method:
Molt-4 cell line (ATCC catalog #CRL-1582) was grown in specific serum-supplemented media (RPMI-1640, Invitrogen catalog #72400) as recommended by ATCC. A day prior to the initiation of the study, cells were split at optimal cell density (2×10^5-5×10^5 cells/ml) to assure actively dividing cells. The next day, cells were washed twice in serum-free Opti-MEM media (Invitrogen, Catalog #51985) and cells were then plated at optimal cell density (10,000 cells/well) in 50 μl Opti-MEM media or Opti-MEM supplemented with 2%, 4% or 10% human serum (Bioreclamation, catalog #HMSRM) in 96-well white tissue culture plate (Nunc, catalog #136102).
For serum free experiment, peptidomimetic macrocycles were diluted from 2 mM stocks (100% DMSO) in sterile water to prepare 400 μM working solutions. The macrocycles and controls were diluted 10-fold first and then serially two-fold diluted in Opti-MEM in dosing plates to provide concentrations of between 1.2 and 40 μM. 50 μL of each dilution was then added to the appropriate wells of the test plate to achieve final concentrations of the polypeptides equal to between 0.6 to 20 μM. For studies using Opti-MEM supplemented with human serum (Bioreclamation, catalog #HMSRM), peptidomimetic macrocycles were diluted from 10 mM stocks (100% DMSO) in sterile water to prepare 2 mM working solutions. The peptide macrocycles and controls were diluted 10-fold first and then serially two-fold diluted in Opti-MEM in the presence of 2%, 4% or 10% of human serum to provide concentrations of the polypeptides equal to between 6.25 to 200 μM in dosing plates. 50 μL of each dilution was then added to the appropriate welts of the test plate to achieve final concentrations of the polypeptides equal to between 3.125 to 100 μM. Controls included wells without polypeptides containing the same concentration of DMSO as the wells containing the macrocycles, wells containing 0.1% Triton X-100 and wells containing no cells. Plates were incubated for 48 hours at 37° C. in humidified 5% CO2 atmosphere.
At the end of the incubation period, CellTiter-Glo assay was performed according to manufacturer's instructions (Promega, catalog #G7573) and luminescence was measured using Synergy HT Plate reader (BioTek).
The following macrocycles derived from the human MAML peptide sequences were tested in cell viability assays with the MOLT-4 tumor cell line: […]

With `CC[C@H](C)[C@H](NC(=O)[C@H](CCCNC(=N)N)NC(=O)[C@H](CCCNC(=N)N)NC(=O)[C@H](CCCNC(=N)N)NC(=O)[C@H](CC(C)C)NC(=O)[C@H](CCCNC(=N)N)NC(=O)[C@H](CCC(=O)O)NC(C)=O)C(=O)N[C@@]1(C)CCCC=CCCC[C@@](C)(C(=O)N[C@@H](Cc2c[nH]cn2)C(=O)N[C@@H](Cc2c[nH]cn2)C(=O)N[C@@H](CO)C(=O)N[C@H](C(N)=O)[C@@H](C)O)NC(=O)[C@H](CCCNC(=N)N)NC(=O)[C@H](CS)NC(=O)[C@H](CC(C)C)NC1=O` [Compound 1, Ac-ERLRRRI$LCR$HHST-NH2] (Ac-ERLRRRI[S5]LCR[S5]HHST-NH2; staple 8-12), the Kd in data set [1] (human) is < 0.1 µM. For the same compound, the fraction unbound in data set [1] (human, serum) is < 0.001.
With `CC[C@H](C)[C@H](NC(=O)[C@H](CCCNC(=N)N)NC(=O)[C@H](CCCNC(=N)N)NC(=O)[C@H](CCCNC(=N)N)NC(=O)[C@H](CC(C)C)NC(=O)[C@H](CCCNC(=N)N)NC(=O)[C@H](CCC(=O)O)NC(C)=O)C(=O)N[C@@]1(C)CCCC=CCCC[C@@](C)(C(=O)N[C@@H](Cc2c[nH]cn2)C(=O)N[C@@H](Cc2c[nH]cn2)C(=O)N[C@@H](CO)C(=O)N[C@H](C(N)=O)[C@@H](C)O)NC(=O)[C@H](CCCNC(=N)N)NC(=O)[C@H](C)NC(=O)[C@H](CC(C)C)NC1=O` [Compound 4, Ac-ERLRRRI$LAR$HHST-NH2] (Ac-ERLRRRI[S5]LAR[S5]HHST-NH2; staple 8-12), the Kd in data set [1] (human) is < 0.1 µM. Also, the fraction unbound in data set [1] (human, serum) was < 0.001. Moreover, in the data set on Molt-4 cell line (48 h), the EC50 was > 20 µM.
Take `CC[C@H](C)[C@H](NC(=O)[C@H](CCCNC(=N)N)NC(=O)[C@H](CCCNC(=N)N)NC(=O)[C@H](CCCNC(=N)N)NC(=O)[C@H](CC(C)C)NC(=O)[C@H](C)NC(C)=O)C(=O)N[C@@]1(C)CCCC=CCCC[C@@](C)(C(=O)N[C@@H](Cc2c[nH]cn2)C(=O)N[C@@H](Cc2c[nH]cn2)C(=O)N[C@@H](CO)C(=O)N[C@H](C(N)=O)[C@@H](C)O)NC(=O)[C@H](C)NC(=O)[C@H](CS)NC(=O)[C@H](CC(C)C)NC1=O` [Compound 19, Ac-ALRRRI$LCA$HHST-NH2] (Ac-ALRRRI[S5]LCA[S5]HHST-NH2; staple 7-11): the fraction unbound in data set [1] (human, estimated with [HSA] total set at 700 μM, read-out: Free Fraction est. in blood) was 0.001. The Kd in data set [1] (nonlinear regression of EC50 shift with increasing human serum, 1:1 HSA binding assumed, 700 μM HSA for 100% serum, read-out: Serum Kd*) is 0.6 µM.
With `CC[C@H](NC(=O)[C@H](CC(C)C)NC(=O)[C@H](CCC(=O)O)NC(=O)[C@@H](NC(=O)[C@H](CCCNC(=N)N)NC(=O)[C@H](CCCNC(=N)N)NC(=O)[C@H](CCCNC(=N)N)NC(=O)[C@H](CC(C)C)NC(=O)[C@H](C)NC(C)=O)[C@@H](C)CC)C(=O)N[C@@H](C)C(=O)N[C@]1(C)CCCCCCC=CCCC[C@@](C)(C(=O)N[C@@H](CCCNC(=N)N)C(=O)N[C@@H](Cc2ccc(O)cc2)C(=O)N[C@@H](CCC(=O)O)C(=O)N[C@@H](C)C(=O)N[C@H](C(N)=O)C(C)C)NC(=O)[C@H](CCC(=O)O)NC(=O)[C@H](CC)NC(=O)[C@H]([C@@H](C)O)NC(=O)[C@H](CO)NC(=O)[C@H](Cc2c[nH]cn2)NC(=O)[C@H](Cc2c[nH]cn2)NC1=O` [Compound 25, Ac-ALRRRIELAbuA$r8HHSTAbuE$RYEAV-NH2] (Ac-ALRRRIEL[Abu]A[R8]HHST[Abu]E[S5]RYEAV-NH2; staple 11-18), in the data set on Molt-4 cell line (MOLT-4 cells, 48 hours incubation, CellTiter-Glo, read-out: Molt 4 viability (EC50)), the EC50 is > 20 µM.
Consider `CC[C@@H]1NC(=O)[C@H](CC(C)C)NC(=O)[C@@](C)(NC(=O)[C@@H](NC(=O)[C@H](CCCNC(=N)N)NC(=O)[C@H](CCCNC(=N)N)NC(=O)[C@H](CCCNC(=N)N)NC(=O)[C@H](CC(C)C)NC(=O)[C@H](C)NC(C)=O)[C@@H](C)CC)CCCC=CCCC[C@@](C)(C(=O)N[C@@H](Cc2c[nH]cn2)C(=O)N[C@@H](Cc2c[nH]cn2)C(=O)N[C@@H](CO)C(=O)N[C@H](C(=O)N[C@@H](C)C(=O)N[C@@H](CCC(=O)O)C(=O)N[C@@H](C)C(=O)N[C@@H](CCCNC(=N)N)C(=O)N[C@@H](Cc2ccc(O)cc2)C(=O)N[C@@H](CCC(=O)O)C(=O)N[C@@H](C)C(=O)N[C@H](C(N)=O)C(C)C)[C@@H](C)O)NC(=O)[C@H](C)NC1=O` [Compound 26, Ac-ALRRRI$LAbuA$HHSTAEARYEAV-NH2] (Ac-ALRRRI[S5]L[Abu]A[S5]HHSTAEARYEAV-NH2; staple 7-11), for which the EC50 in the data set with Molt-4 cell line (48 h) was > 20 µM.
Take `CC[C@@H]1NC(=O)[C@H](CC(C)C)NC(=O)[C@@](C)(NC(=O)[C@@H](NC(=O)[C@H](CCCNC(=N)N)NC(=O)[C@H](CCCNC(=N)N)NC(=O)[C@H](CCCNC(=N)N)NC(=O)[C@H](CC(C)C)NC(=O)[C@H](C)NC(=O)[C@H](CCCNC(=N)N)NC(C)=O)[C@@H](C)CC)CCCC=CCCC[C@@](C)(C(=O)N[C@@H](Cc2c[nH]cn2)C(=O)N[C@@H](Cc2c[nH]cn2)C(=O)N[C@@H](CO)C(=O)N[C@H](C(N)=O)[C@@H](C)O)NC(=O)[C@H](C)NC1=O` [Compound 31, Ac-RALRRRI$LAbuA$HHST-NH2] (Ac-RALRRRI[S5]L[Abu]A[S5]HHST-NH2; staple 8-12): in the data set with Molt-4 cell line (48 h), the half-maximal effective concentration (EC50) was 3.7 µM.
